Assay results reported in US20260234135A1, “CRYSTALLINE FORMS OR SALTS OF A DEUTERATED COMPOUND” (ALEBUND PHARMACEUTICALS (HONG KONG) LIMITED, priority 2023, published 2026).
In brackets after ≈: the same amount, converted by molar mass. Where two headings read alike, the source gives them in different places.

What was measured:
[1] = Approximate solubility in single solvents at RT; type: physicochemical
Procedure: Approximately 2 mg of sample was added into a 3-mL glass vial. Corresponding solvents were added stepwise (50 μL→50 μL→100 μL→200 μL→600 μL→1000 μL) into the vials until the solids were dissolved visually or a total volume of 2 mL was reached. The ranges of approximate solubility were calculated according to the mass of sample, volume of solvent and observation. Result summarized in Table 3 was used to guide the solvent selection in polymorph screening.

[2] = Hygroscopicity evaluation by DVS at 25° C.; type: physicochemical
Procedure: DVS was measured via a SMS (Surface Measurement Systems) DVS Intrinsic. The relative humidity at 25° C. were calibrated against deliquescence point of LiCl, Mg(NO3)2 and KCl.

[3] = for HPLC Purity (area %), main peak RRT 1.00 / HPLC Reults of initial (%): listed as Free acid Form B
physchem = settings: thermodynamic from solid
[4] = SGF, 37 °C, simulated gastric fluid
[5] = pH 4.5 (KAc) buffer, 37 °C, pH 4.5, aqueous buffer
[6] = pH 6.8 buffer (K2HPO3 + KH2PO3), 37 °C, pH 6.8, aqueous buffer
[7] = pH 8.0 buffer (K2HPO3 + KH2PO3), 37 °C, pH 8, aqueous buffer

For `[2H]C([2H])(Cc1nc(-c2ccccc2)oc1C)Oc1ccc(C[C@H](OC)C(=O)O)c2sccc12` [AP-303 (818159-01-A)], the Solubility ([1]; 1,4-Dioxane) was “S > 46.0 mg/mL”, the Solubility ([1]; DMSO) was “S > 44.0 mg/mL” and the Solubility ([1]; H2O) was “S < 1.2 mg/mL”. For the same molecule, the Solubility ([1]; THF) was “S > 42.0 mg/mL” and the Solubility ([1]; n-Heptane) was “S < 1.3 mg/mL”.

In the case of `[2H]C([2H])(Cc1nc(-c2ccccc2)oc1C)Oc1ccc(C[C@H](OC)C(=O)O)c2sccc12` [free acid Form B], the Hygroscopicity ([2]; DVS, 25° C.) is reported as “non-hygroscopic”, the “Water uptake up to 80% RH” value ([2]; DVS, 25° C.) is reported as 0.07% and the “Form change after DVS test” value ([2]; XRPD after DVS) is reported as “No form change”. For the same molecule, the “Area (%) peak 1, RRT 0.88” value ([3]; 40° C./75% RH, 2 weeks) was 0.20%, the “Area (%) peak 2, RRT 1.00 (main peak)” value ([3]; 40° C./75% RH, 2 weeks) was 99.50% and the “Area (%) peak 3, RRT 1.14” value ([3]; 40° C./75% RH, 2 weeks) was 0.11%. For the same molecule, the “Area (%) peak 4, RRT 1.34” value ([3]; 40° C./75% RH, 2 weeks) was 0.20%, the “Area (%) peak 1, RRT 0.88” value ([3]; 40° C./75% RH, 4 weeks) was 0.23% and the “Area (%) peak 2, RRT 1.00 (main peak)” value ([3]; 40° C./75% RH, 4 weeks) was 99.47%. The “Area (%) peak 3, RRT 1.14” value ([3]; 40° C./75% RH, 4 weeks) was 0.11%, the “Area (%) peak 4, RRT 1.34” value ([3]; 40° C./75% RH, 4 weeks) was 0.19% and the “Area (%) peak 1, RRT 0.88” value ([3]; 40° C./75% RH, 8 weeks) was 0.20%. The “Area (%) peak 2, RRT 1.00 (main peak)” value ([3]; 40° C./75% RH, 8 weeks) was 99.52%, the “Area (%) peak 3, RRT 1.14” value ([3]; 40° C./75% RH, 8 weeks) was 0.09% and the “Area (%) peak 4, RRT 1.34” value ([3]; 40° C./75% RH, 8 weeks) was 0.19%. For the same molecule, the “HPLC Purity (area %), main peak RRT 1.00” value ([3]; 40° C./75% RH/open, 2 weeks) was 99.50 area %, the “HPLC Purity (area %), main peak RRT 1.00” value ([3]; 40° C./75% RH/open, 4 weeks) was 99.47 area % and the “HPLC Reults of initial (%)” value ([3]; 40° C./75% RH/open, 4 weeks) was 100.00%. The “HPLC Purity (area %), main peak RRT 1.00” value ([3]; 40° C./75% RH/open, 8 weeks) was 99.52 area %, the “HPLC Reults of initial (%)” value ([3]; 40° C./75% RH/open, 8 weeks) was 100.05% and the “Area (%) peak 1, RRT 0.88” value ([3]; 60° C., 2 weeks) was 0.20%. For the same molecule, the “Area (%) peak 2, RRT 1.00 (main peak)” value ([3]; 60° C., 2 weeks) was 99.49%, the “Area (%) peak 3, RRT 1.14” value ([3]; 60° C., 2 weeks) was 0.11% and the “Area (%) peak 4, RRT 1.34” value ([3]; 60° C., 2 weeks) was 0.20%. For the same molecule, the “Area (%) peak 1, RRT 0.88” value ([3]; 60° C., 4 weeks) was 0.22%, the “Area (%) peak 2, RRT 1.00 (main peak)” value ([3]; 60° C., 4 weeks) was 99.47% and the “Area (%) peak 3, RRT 1.14” value ([3]; 60° C., 4 weeks) was 0.11%. The “Area (%) peak 4, RRT 1.34” value ([3]; 60° C., 4 weeks) was 0.20%, the “Area (%) peak 1, RRT 0.88” value ([3]; 60° C., 8 weeks) was 0.20% and the “Area (%) peak 2, RRT 1.00 (main peak)” value ([3]; 60° C., 8 weeks) was 99.51%. For the same molecule, the “Area (%) peak 3, RRT 1.14” value ([3]; 60° C., 8 weeks) was 0.10%, the “Area (%) peak 4, RRT 1.34” value ([3]; 60° C., 8 weeks) was 0.20% and the “HPLC Purity (area %), main peak RRT 1.00” value ([3]; 60° C./close, 2 weeks) was 99.49 area %. The “HPLC Purity (area %), main peak RRT 1.00” value ([3]; 60° C./close, 4 weeks) was 99.47 area %, the “HPLC Reults of initial (%)” value ([3]; 60° C./close, 4 weeks) was 100.00% and the “HPLC Purity (area %), main peak RRT 1.00” value ([3]; 60° C./close, 8 weeks) was 99.51 area %. For the same molecule, the “HPLC Reults of initial (%)” value ([3]; 60° C./close, 8 weeks) was 100.04%, the “Area (%) peak 1, RRT 0.88” value ([3]; Initial) was 0.23% and the “Area (%) peak 2, RRT 1.00 (main peak)” value ([3]; Initial) was 99.47%. For the same molecule, the “Area (%) peak 3, RRT 1.14” value ([3]; Initial) was 0.10%, the “Area (%) peak 4, RRT 1.34” value ([3]; Initial) was 0.20% and the “HPLC Purity (area %), main peak RRT 1.00” value ([3]; Initial) was 99.47 area %. It also gave a solubility at 2 h (physchem; FaSSIF-V2, 37 °C, fassif) of 280 µg/mL (≈ 637 µM), a solubility at 24 h (physchem; FaSSIF-V2, 37 °C, fassif) of 290 µg/mL (≈ 660 µM) and a solubility at 2 h (physchem; FeSSIF-V2, 37 °C, fessif) of 630 µg/mL (≈ 1430 µM). The solubility at 24 h (physchem; FeSSIF-V2, 37 °C, fessif) was 650 µg/mL (≈ 1480 µM), the solubility at 2 h (physchem; [4]) was 11 µg/mL (≈ 25 µM) and the solubility at 24 h (physchem; [4]) was 9.6 µg/mL (≈ 21.8 µM). It also gave a solubility at 2 h (physchem; [5]) of 0.3 µg/mL (≈ 0.683 µM), a solubility at 24 h (physchem; [5]) of 0.4 µg/mL (≈ 0.91 µM) and a solubility at 2 h (physchem; [6]) of 150 µg/mL. It also gave a solubility at 24 h (physchem; [6]) of 170 µg/mL, a solubility at 2 h (physchem; [7]) of 1900 µg/mL and a solubility at 24 h (physchem; [7]) of 1900 µg/mL. The solubility at 2 h (physchem; water, 37 °C) was 36 µg/mL (≈ 81.9 µM).
